From ChEMBL document CHEMBL4052810, “Synthesis and evaluation of vitamin D3 analogues with C-11 modifications as inhibitors of Hedgehog signaling” (Bioorg Med Chem Lett, 2017)

Tests used:
Mus musculus [1] = species on record: Mus musculus; experiment: Inhibition of Hedgehog signaling pathway in mouse C3H10T1/2 cells assessed as reduction in oxysterol-induced Gli1 mRNA expression at 5 uM after 24 hrs by q-PCR analysis relative to oxysterol alone; format: cell-based
[2] = (§1) Inhibition of Hedgehog signaling pathway in mouse C3H10T1/2 cells assessed as reduction in oxysterol-induced Gli1 mRNA expression after 24 hrs by q-PCR analysis; format: cell-based; details: C3H 10T1/2, 24 h
Mus musculus [3] = species on record: Mus musculus; experiment: as §1; format: cell-based
[4] = target: T1, Cyp24A1 mRNA (readout of VDR activation) (Mus musculus, UniProt P48281); experiment: Activation of VDR in mouse C3H10T1/2 cells assessed as change in Cyp24A1 mRNA expression at 5 uM after 24 hrs by q-PCR analysis relative to control; format: ADME, cell-based; details: read-out: FC
T1 sequence (P48281 whole entry): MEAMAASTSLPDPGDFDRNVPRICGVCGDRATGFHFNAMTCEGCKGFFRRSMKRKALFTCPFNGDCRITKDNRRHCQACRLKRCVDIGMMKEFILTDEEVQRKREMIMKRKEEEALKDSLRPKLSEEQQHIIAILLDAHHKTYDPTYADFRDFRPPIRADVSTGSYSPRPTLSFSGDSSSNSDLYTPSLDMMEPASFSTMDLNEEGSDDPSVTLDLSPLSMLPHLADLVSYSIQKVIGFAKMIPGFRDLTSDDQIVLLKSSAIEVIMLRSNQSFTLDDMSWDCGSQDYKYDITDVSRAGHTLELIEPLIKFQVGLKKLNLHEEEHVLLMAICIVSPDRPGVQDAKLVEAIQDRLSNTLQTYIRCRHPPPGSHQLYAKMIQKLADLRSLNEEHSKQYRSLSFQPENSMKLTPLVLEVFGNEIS

[5] = Inhibition of Hedgehog signaling pathway in mouse ASZ001 cells assessed as reduction in oxysterol-induced Gli1 mRNA expression after 24 hrs by q-PCR analysis; format: cell-based; details: ASZ001, 24 h
[6] = target: T1, Cyp24A1 mRNA (readout of VDR activation); experiment: Activation of VDR in mouse ASZ001 cells assessed as change in Cyp24A1 mRNA expression at 5 uM after 24 hrs by q-PCR analysis relative to control; format: ADME, cell-based; details: read-out: FC

| Compound | IC50 [2] | fold induction at 24 h, 5 µM [4] | IC50 [5] | fold induction at 24 h, 5 µM [6] | inhibition (Mus musculus [1]) | inhibition (Mus musculus [3]) |
| --- | --- | --- | --- | --- | --- | --- |
| CC(C)CCC[C@@H](C)[C@H]1CC[C@H]2[C@@H](OC(=O)c3cccc(O)c3)C[C@H](CCO)C[C@]12C | 2 µM | 9 | 4.1 µM | 1.1 | 8.7% | Dose-dependent effect |
| CC[C@@H]1C[C@H](OC(=O)c2cccc(O)c2)[C@@H]2CC[C@H]([C@H](C)CCCC(C)C)[C@@]2(C)C1 | 0.92 µM | 3.6 | 5.2 µM | 1.3 | 2% | Dose-dependent effect |
| CC(C)CCC[C@@H](C)[C@H]1CC[C@H]2[C@@H](Nc3ccc(O)cc3)C[C@H](CCO)C[C@]12C | 2.7 µM | 7.2 | 1 µM | 2 | 1.1% | Dose-dependent effect |
| CC(C)CCC[C@@H](C)[C@H]1CC[C@H]2[C@@H](O)C[C@H](CCO)C[C@]12C | 4.7 µM | 17 |  |  | 39% | Dose-dependent effect |

Continued, in another order:

| IC50 [2] | fold induction at 24 h, 5 µM [4] | IC50 [5] | fold induction at 24 h, 5 µM [6] | Compound | inhibition (Mus musculus [1]) | inhibition (Mus musculus [3]) |
| --- | --- | --- | --- | --- | --- | --- |
|  | 2.8 |  |  | CC(C)CCC[C@@H](C)[C@H]1CC[C@H]2[C@@H](OC(=O)c3cccc(O)c3)C[C@H](C3CCCCC3)C[C@]12C | 92% |  |
| 6.3 µM | 4.8 | 7.5 µM | 0.96 | C#CCCC(=O)OCC[C@H]1C[C@H](OC(=O)c2cccc(O)c2)[C@@H]2CC[C@H]([C@H](C)CCCC(C)C)[C@@]2(C)C1 | 16% | Dose-dependent effect |
|  | 19 |  |  | C=C[C@H]1CC(=O)[C@@H]2CC[C@H]([C@H](C)CCCC(C)C)[C@@]2(C)C1 | 28% |  |
|  | 3.6 |  |  | CC(C)CCC[C@@H](C)[C@H]1CC[C@H]2[C@@H](OC(=O)c3cccc(O)c3)C[C@H](Cc3ccccc3)C[C@]12C | 85% |  |
|  | 2.3 |  |  | CC(C)CCC[C@@H](C)[C@H]1CC[C@H]2[C@@H](OC(=O)c3cccc(O)c3)C[C@H](c3ccccc3)C[C@]12C | 71% |  |
